Where “and” joins values, the source holds several entries; their conditions need not be identical. Equal values may be shown once. Read-outs that look alike come from different tables or passages of the source.
Key:
Assay in all cases: MIC of compounds alone and combined with antibacterials, broth microdilution (CLSI)
Assay type in all cases: cell-based
[1] = test system: Morganella morganii (MMO) isolates
Outline: (§1)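 Broth microdilution in cation-adjusted Mueller-Hinton broth, inoculum 5.10^5 CFU/mL, 16-20 h at 35° C in ambient air, on genotyped isolates. Compound MIC, alone or with an antibacterial, taken visually as lowest concentration preventing growth; antibacterial MIC determined at each compound concentration.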

[2] = test system: Providencia rettgeri (PRE) isolates
Outline: as §1

[3] = test system: Enterobacter cloacae (ECL) isolates
Outline: as §1

[4] = test system: Klebsiella pneumoniae (KPN) isolates
Outline: as §1

CC1(C)S[C@@H]2[C@H](NC(=O)[C@H](N)c3ccc(O)cc3)C(=O)N2[C@H]1C(=O)O [AMX, Amoxicillin]
MIC [1]: >128 µg/mL | MIC ATB in combination [1]: >128 µg/mL | MIC ([1]; strain MMO 200321, genotype TEM-1, CTX-M-15, OXA-1): >256 µg/mL | MIC ([1]; strain MMO UFR144, genotype TEM-1, CTX-M-15): >128 µg/mL | MIC ([1]; strain MMO UFR240, genotype CTX-M-9): >128 µg/mL | MIC ([1]; strain MMO UFR241, genotype TEM-1, CTX-M-15): >128 µg/mL | MIC ([1]; strain MMO UFR242, genotype TEM-52): >128 µg/mL | MIC ATB in combination [2]: >128 µg/mL | MIC ([2]; strain PRE UFR96, genotype CTX-M-15, NDM-1): >128 µg/mL | MIC ([2]; strain PRE UFR97, genotype TEM-1, NDM-1): >128 µg/mL | MIC ([2]; strain PRE UFR99, genotype OXA-1, OXA-181): >128 µg/mL | MIC ([2]; strain PRE UFR236, genotype TEM-1, OXA-48): >128 µg/mL | MIC ATB in combination [3]: >128 µg/mL | MIC ATB in combination ([3]; ECL 190408, AF2 @ 8 μg/mL): <=0.25 μg/mL | MIC ATB in combination ([3]; ECL 200322, AF2 @ 8 μg/mL): <0.25 µg/mL | MIC ATB in combination ([3]; ECL 260253, AF2 @ 8 μg/mL): <0.25 µg/mL | MIC ATB in combination ([3]; ECL 260323, AF2 @ 8 μg/mL): <0.25 µg/mL | MIC ATB in combination ([3]; ECL 260508, AF2 @ 8 μg/mL): <0.25 µg/mL | MIC ATB in combination ([3]; ECL P99, CLA @ 4 μg/mL): >512 µg/mL | MIC ATB in combination ([3]; ECL UFR12, AF2 @ 8 μg/mL): <0.25 µg/mL | MIC ATB in combination ([3]; ECL UFR38, AF2 @ 8 μg/mL): <=0.25 μg/mL | MIC ATB in combination ([3]; ECL UFR51, AF2 @ 8 μg/mL): <0.25 µg/mL | MIC ATB in combination ([3]; ECL UFR70, AF2 @ 8 μg/mL): 0.5 µg/mL | MIC ATB in combination ([3]; ECL UFR85, AF2 @ 8 μg/mL): <0.25 µg/mL | MIC ([3]; strain ECL 2185D, genotype OXA-163): >256 µg/mL | MIC ([3]; strain ECL 190310, genotype AmpC): >256 µg/mL | MIC ([3]; strain ECL 190408, genotype TEM-1, CTX-M-15, OXA-1): >256 µg/mL | MIC ([3]; strain ECL 200138, genotype AmpC): >256 µg/mL | MIC ([3]; strain ECL 200322, genotype TEM-1, CTX-M-15, OXA-1): >256 µg/mL | MIC ([3]; strain ECL 260033, genotype AmpC): >256 µg/mL | MIC ([3]; strain ECL 260253, genotype TEM-1, KPC-3): >256 µg/mL | MIC ([3]; strain ECL 260323, genotype AmpC): >256 µg/mL | MIC ([3]; strain ECL 260508, genotype TEM-1, CTX-M-15): >256 µg/mL | MIC ([3]; strain ECL HAN, genotype OXA-35): >256 µg/mL | MIC ([3]; strain ECL NEM146383, genotype AmpC): >256 µg/mL | MIC ([3]; strain ECL P99, genotype AmpC): >1024 µg/mL | MIC ([3]; strain ECL UFR12, genotype CTX-M-9, OXA-48): >256 µg/mL | MIC ([3]; strain ECL UFR13, genotype TEM-1, SHV-12, CTX-M-9, OXA-48): >256 µg/mL | MIC ([3]; strain ECL UFR14, genotype TEM-1, SHV-12, CTX-M-15, DHA-1, OXA-1, OXA-48): >256 µg/mL | MIC ([3]; strain ECL UFR38, genotype CTX-M-15, NDM-1): >256 µg/mL | MIC ([3]; strain ECL UFR51, genotype SHV-12, IMP-8): >256 µg/mL | MIC ([3]; strain ECL UFR60, genotype TEM-1, CTX-M-15, KPC-2): >256 µg/mL | MIC ([3]; strain ECL UFR70, genotype TEM-1, CTX-M-15, CMY-2, OXA-1, Porin loss): >256 µg/mL | MIC ([3]; strain ECL UFR84, genotype TEM-1, AmpC, OXA-1): >256 µg/mL | MIC ([3]; strain ECL UFR85, genotype TEM-1, CTX-M-15, AmpC): >256 µg/mL | MIC ([3]; strain ECL UFR192, genotype TEM-1, NDM-1, antibiotic alone): >128 µg/mL | MIC ([3]; strain ECL UFR193, genotype TEM-1, CTX-M-15, OXA-1, NDM-1, RmtC, antibiotic alone): >128 µg/mL | MIC ([3]; strain ECL UFR194, genotype OXA-48): >128 µg/mL | MIC ([3]; strain ECL UFR195, genotype TEM-1, CTX-M-15, OXA-1, OXA-48): >128 µg/mL | MIC ([3]; strain ECL UFR196, genotype TEM-1, CTX-M-15, OXA-1, OXA-48): >128 µg/mL | MIC ([3]; strain ECL UFR197, genotype TEM-1, CTX-M-15, OXA-1, OXA-48): >128 µg/mL | MIC ([3]; strain ECL UFR198, genotype TEM-1, SHV-12, CTX-M-15, DHA-1, OXA-1, OXA-48): >128 µg/mL | MIC ([3]; strain ECL UFR200, genotype TEM-1, SHV-12, KPC-2): >128 µg/mL | MIC ([3]; strain ECL UFR203, genotype TEM-1, SHV-12, VIM-1, antibiotic alone): >128 µg/mL | MIC ([3]; strain ECL UFR214, genotype TEM-1, SHV-31, CTX-M-15, VIM-4, antibiotic alone): >128 µg/mL | MIC ([3]; strain ECL UFR252PT, genotype VIM-2, antibiotic alone): >128 µg/mL | MIC [4]: >128 µg/mL | MIC ATB in combination [4]: >128 µg/mL and 128 µg/mL and <128 µg/mL | MIC ATB in combination ([4]; KPN 6299, AF2 @ 8 μg/mL): 2 µg/mL | MIC ATB in combination ([4]; KPN 6299, CLA @ 4 μg/mL): >512 µg/mL | MIC ATB in combination ([4]; KPN 110376, AF2 @ 8 μg/mL): 0.5 µg/mL | MIC ATB in combination ([4]; KPN 131119, CLA @ 4 μg/mL): >512 µg/mL | MIC ATB in combination ([4]; KPN 160143, AF2 @ 8 μg/mL): <0.25 µg/mL | MIC ATB in combination ([4]; KPN 190551, AF2 @ 8 μg/mL): <0.25 µg/mL | MIC ATB in combination ([4]; KPN 200047, AF2 @ 8 μg/mL): <0.25 µg/mL | MIC ATB in combination ([4]; KPN 200047, CLA @ 4 μg/mL): 32 µg/mL | MIC ATB in combination ([4]; KPN 200327, AF2 @ 8 μg/mL): <0.25 µg/mL | MIC ATB in combination ([4]; KPN 200327, CLA @ 4 μg/mL): 32 µg/mL | MIC ATB in combination ([4]; KPN 260251, AF2 @ 8 μg/mL): 4 µg/mL | MIC ATB in combination ([4]; KPN 260376, AF2 @ 8 μg/mL): <0.25 µg/mL | MIC ATB in combination ([4]; KPN 270077, AF2 @ 8 μg/mL): 32 µg/mL | MIC ATB in combination ([4]; KPN 270077, CLA @ 4 μg/mL): 32 µg/mL | MIC ATB in combination ([4]; KPN 700603, AF2 @ 8 μg/mL): 4 µg/mL | MIC ATB in combination ([4]; KPN 700603, CLA @ 4 μg/mL): 8 µg/mL
